Laboratory results as given in US20200179273A1, “LONG-ACTION IMPLANT FOR TREATMENT OF INFECTIOUS DISEASES” (Merck Sharp & Dohme Corp., priority 2017, published 2020).
Values after ≈ are worked out from the molar mass of the structure shown. Read-outs that look alike come from different tables or passages of the source.

Columns and labels:
[1] = Solubility of anti-tuberculosis compounds in PBS; format: physicochemical; settings: aqueous buffer
[2] = In vitro drug release from compressed implants; format: physicochemical; settings: compressed implant 80wt % drug, PBS with 0.2 or 5wt % SDS, 37° C., 50 rpm
Experimental: The in vitro release rate of the drug was determined by incubating individual implants in a glass vial with phosphate buffered saline (PBS) containing 0.2 or 5wt % sodium dodecyl sulfate (SDS) at 37° C., and 50 rpm shaking in an Innova 42 incubator. The volume of media was sufficient to maintain sink conditions. Sink conditions are defined as the drug concentration maintained at or below ⅓ of the maximum solubility. Samples were removed at selected time points, and centrifuged at 20,800×g for 8 min. The supernatant was analyzed by HPLC.

[3] = In vivo drug release: drug concentration in blood plasma after subcutaneous implants; design: species or system Wistar Han rat; settings: rat, three compressed implants subcutaneous; for concentration at 9 days / concentration at 16 days / concentration at 30 days / concentration at 44 days / concentration at 58 days / concentration at 0.167 days / concentration at 0.25 days / concentration at 1 day / concentration at 2 days / concentration at 0.083 days: Wistar Han, plasma, sc; for concentration at 9 days / concentration at 16 days / concentration at 30 days / concentration at 44 days / concentration at 0.167 days / concentration at 0.25 days / concentration at 1 day / concentration at 2 days: 60 mg/animal; for concentration at 58 days / concentration at 0.083 days: 60 mg
Description: For each implantation, a Wistar Han rat was anesthetized using isoflurane to effect prior to subcutaneous dose administration. Using a trocar needle, three implants from each formulation example above were placed subcutaneously in the intrascapular region of a rat. Three animals were used for each formulation. Animals were monitored until recovered. At indicated time points, samples of blood were obtained from anesthetized animals (using isoflurane) and processed to plasma for determination of drug concentration by LC/MS. Results are shown in the below table (Table 4).

[4] = dissolution media PBS, 37° C., read-out: Solubility at 37° C.
[5] = in phosphate buffered saline (PBS), read-out: aqueous solubility

| Compound | solubility [1, 4] [µg/mL] | solubility [1, 5] [µg/mL] | Cumulative in vitro drug release Avg. ([2]; 1 day) [%] | Cumulative in vitro drug release Avg. ([2]; 11 days) [%] | Cumulative in vitro drug release Avg. ([2]; 20 days) [%] | Drug concentration in blood plasma Avg. ([3]; 0.083 days) | Drug concentration in blood plasma Avg. ([3]; 0.167 days) | Drug concentration in blood plasma Avg. ([3]; 0.25 days) | Drug concentration in blood plasma Avg. ([3]; 1 day) | Drug concentration in blood plasma Avg. ([3]; 2 days) | concentration at 9 days [3] [nM] | concentration at 16 days [3] [nM] | concentration at 30 days [3] [nM] | concentration at 44 days [3] [nM] | concentration at 58 days [3] [nM] | concentration at 0.167 days ([3]; 0.167 days) [nM] | concentration at 0.25 days ([3]; 0.25 days) [nM] | concentration at 1 day ([3]; 1 day) [nM] | concentration at 2 days ([3]; 2 days) [nM] | concentration at 0.083 days ([3]; 0.083 days) [nM] |
| --- | --- | --- | --- | --- | --- | --- | --- | --- | --- | --- | --- | --- | --- | --- | --- | --- | --- | --- | --- | --- |
| COc1nc2ccc(Br)cc2cc1[C@@H](c1ccccc1)[C@@](O)(CCN(C)C)c1cccc2ccccc12 [bedaquiline] | 129 (≈ 232 µM) | < 200 | 10.9 | 41.4 | 57.2 | BLQ | BLQ | BLQ | BLQ | BLQ | 81 | 63.6 | 51.7 | 70.3 | 60.2 | – | – | – | – | – |
| C[C@]1(COc2ccc(N3CCC(Oc4ccc(OC(F)(F)F)cc4)CC3)cc2)Cn2cc([N+](=O)[O-])nc2O1 [delamanid] | – | – | 20.3 | 26.8 | 38.3 | – | – | – | – | – | – | – | – | – | – | – | – | – | – | – |
| CO[C@H]1/C=C/O[C@@]2(C)Oc3c(C)c(O)c4c(c3C2=O)C2=NC3(CCN(CC(C)C)CC3)NC2=C(NC(=O)/C(C)=C\C=C\[C@H](C)[C@H](O)[C@@H](C)[C@@H](O)[C@@H](C)[C@H](OC(C)=O)[C@@H]1C)C4=O [rifabutin] | 101 (≈ 119 µM) | < 200 | 40.6 | 107.7 | – | – | – | – | – | – | 119 | 75.9 | 69.3 | 42.3 | 38.3 | 164 | 244 | 209 | 182 | 81.9 |
| CO[C@H]1/C=C/O[C@@]2(C)Oc3c(C)c(O)c4c(O)c(c(/C=N/N5CCN(C6CCCC6)CC5)c(O)c4c3C2=O)NC(=O)/C(C)=C\C=C\[C@H](C)[C@H](O)[C@@H](C)[C@@H](O)[C@@H](C)[C@H](OC(C)=O)[C@@H]1C [rifapentine] | 134 (≈ 153 µM) | < 200 | – | – | – | – | – | – | – | – | 5980 | 2260 | 1010 | 1460 | 477 | 803 | 1250 | 3530 | 5210 | 630 |
